According to ChEMBL document CHEMBL1955766, “Structure guided development of novel thymidine mimetics targeting Pseudomonas aeruginosa thymidylate kinase: from hit to lead generation” (J Med Chem, 2012):
Converted amounts (≈) assume the structure as drawn.

Tested on: Mycobacterium tuberculosis variant bovis
Assay: Antibacterial activity against Mycobacterium bovis
Assay type: functional

## Cc1cn([C@@H]2C[C@H](O)[C@@H](CNC(=S)Nc3ccc(Cl)c(Cl)c3)O2)c(=O)[nH]c1=O
  MIC: 25 µg/mL (≈ 56.1 µM)
